Test results as given in US6465457B1 (priority 1991, dated 2002).
Like-named read-outs stand apart in the source and are kept apart here.

How the values were obtained:
Format in all cases: in vivo
[1] = test system: Thanatephorus cucumeries (Rice); assay: Foliar fungal disease test on plants: Thanatephorus cucumeries (Rice); settings: one or two days before inoculation
[2] = test system: Erysiphe graminis tritici (Wheat); assay: Foliar fungal disease test on plants: Erysiphe graminis tritici (Wheat); settings: plants inoculated 24 hours before treatment
[3] = test system: Pyricularia oryzae (Rice); settings: one or two days before inoculation
[4] = test system: Puccinia recondita (Wheat); assay: Foliar fungal disease test on plants: Puccinia recondita (Wheat)
[5] = test system: Plasmopara viticola (Vines); assay: Foliar fungal disease test on plants: Plasmopara viticola (Vines); settings: one or two days before inoculation
[6] = test system: Phytophthora infestans (Tomatoes); settings: one or two days before inoculation
[7] = test system: Septoria nodorum (Wheat); assay: Foliar fungal disease test on plants: Septoria nodorum (Wheat); settings: one or two days before inoculation
[8] = test system: Venturia inaequalis (Apples); assay: Foliar fungal disease test on plants: Venturia inaequalis (Apples); settings: one or two days before inoculation
[9] = 100 ppm a.i. foliar spray or root drench (approx. 40 ppm in dry soil)
[10] = 100 ppm a.i. foliar spray or root drench, plants inoculated with Puccinia recondita 48 hours before treatment
[11] = 100 ppm a.i. foliar spray or root drench (approx. 40 ppm in dry soil), one or two days before inoculation
[12] = 10 ppm foliar spray only, plants inoculated with Puccinia recondita 48 hours before treatment

Compound	POCO (Percentage of Control) disease level, Thanatephorus cucumeries (Rice) [1, 9]	POCO (Percentage of Control) disease level, Erysiphe graminis tritici (Wheat) [2, 9]	POCO (Percentage of Control) disease level, Pyricularia oryzae (Rice) [3, 9]	POCO (Percentage of Control) disease level, Puccinia recondita (Wheat) [4, 10]	POCO (Percentage of Control) disease level, Plasmopara viticola (Vines) [5, 9]	POCO (Percentage of Control) disease level, Phytophthora infestans (Tomatoes) [6, 9]	POCO (Percentage of Control) disease level, Septoria nodorum (Wheat) [7, 9]	POCO (Percentage of Control) disease level, Venturia inaequalis (Apples) [8, 9]	POCO (Percentage of Control) disease level, Puccinia recondita (Wheat) [4, 11]	POCO (Percentage of Control) disease level, Thanatephorus cucumeries (Rice) ([1]; 10 ppm foliar spray only)	POCO (Percentage of Control) disease level, Erysiphe graminis tritici (Wheat) ([2]; 10 ppm foliar spray only)	POCO (Percentage of Control) disease level, Pyricularia oryzae (Rice) ([3]; 10 ppm foliar spray only)	POCO (Percentage of Control) disease level, Puccinia recondita (Wheat) [4, 12]	POCO (Percentage of Control) disease level, Plasmopara viticola (Vines) ([5]; 10 ppm foliar spray only)	POCO (Percentage of Control) disease level, Phytophthora infestans (Tomatoes) ([6]; 10 ppm foliar spray only)	POCO (Percentage of Control) disease level, Septoria nodorum (Wheat) ([7]; 10 ppm foliar spray only)	POCO (Percentage of Control) disease level, Venturia inaequalis (Apples) ([8]; 10 ppm foliar spray only)	POCO (Percentage of Control) disease level, Puccinia recondita (Wheat) ([4]; 10 ppm foliar spray only, one or two days before inoculation)
COC=C(C(=O)OC)c1ccccc1COC(=O)N1CCSCC1 [4 (133)]	60 (60 = 30.1-60% disease present)	90 (90 and 94 = 60.1-100% disease present)	90 (90 and 94 = 60.1-100% disease present)	60+ (60 = 30.1-60% disease present)	0 (0 = 0% disease present)	90 (90 and 94 = 60.1-100% disease present)	90 (90 and 94 = 60.1-100% disease present)	10 (10 = 5.1-10% disease present)										
CO/C=C(/C(=O)OC)c1ccccc1COC(=O)Nc1ccccc1 [5 (1), (E)-methyl 3-methoxy-2-[2-((phenyl)carbamoyloxymethyl)phenyl]propenoate]	60 (60 = 30.1-60% disease present)	60 (60 = 30.1-60% disease present)	10 (10 = 5.1-10% disease present)		5 (5 = 3.1-5% disease present)	60 (60 = 30.1-60% disease present)	30 (30 = 20.1-30% disease present)	30 (30 = 20.1-30% disease present)	60 (60 = 30.1-60% disease present)									
COC=C(C(=O)OC)c1ccccc1COC(=S)Oc1ccccc1 [5 (12)]										60 (60 = 30.1-60% disease present)	60 (60 = 30.1-60% disease present)	60 (60 = 30.1-60% disease present)	90+ (90 and 94 = 60.1-100% disease present)	3 (3 = 1.1-3% disease present)	90 (90 and 94 = 60.1-100% disease present)	90 (90 and 94 = 60.1-100% disease present)	0 (0 = 0% disease present)	
CNC(=O)C(=NOC)c1ccccc1COC(=O)Nc1ccccc1 [5 (65)]										90 (90 and 94 = 60.1-100% disease present)	30 (30 = 20.1-30% disease present)	30 (30 = 20.1-30% disease present)	90+ (90 and 94 = 60.1-100% disease present)	90 (90 and 94 = 60.1-100% disease present)	90 (90 and 94 = 60.1-100% disease present)	90 (90 and 94 = 60.1-100% disease present)	90 (90 and 94 = 60.1-100% disease present)	
CNC(=O)C(=NOC)c1ccccc1COC(=O)N(C)c1ccccc1 [5 (66)]	0 (0 = 0% disease present)	0 (0 = 0% disease present)	0 (0 = 0% disease present)	10+ (10 = 5.1-10% disease present)	0 (0 = 0% disease present)	0 (0 = 0% disease present)	5 (5 = 3.1-5% disease present)	0 (0 = 0% disease present)										
COC=C(C(=O)OC)c1ccccc1COC(=O)N1CCc2ccccc21 [5 (133)]										90 (90 and 94 = 60.1-100% disease present)	60 (60 = 30.1-60% disease present)	90 (90 and 94 = 60.1-100% disease present)	90+ (90 and 94 = 60.1-100% disease present)	90 (90 and 94 = 60.1-100% disease present)	90 (90 and 94 = 60.1-100% disease present)	90 (90 and 94 = 60.1-100% disease present)	90 (90 and 94 = 60.1-100% disease present)	
COC=C(C(=O)OC)c1ccccc1COC(=O)Nc1cccc([N+](=O)[O-])c1 [6 (1)]	90 (90 and 94 = 60.1-100% disease present)	90 (90 and 94 = 60.1-100% disease present)	90 (90 and 94 = 60.1-100% disease present)		90 (90 and 94 = 60.1-100% disease present)	60 (60 = 30.1-60% disease present)	30 (30 = 20.1-30% disease present)	60 (60 = 30.1-60% disease present)	90 (90 and 94 = 60.1-100% disease present)									
COC=C(C(=O)OC)c1ccccc1COC(=O)N(CC(F)F)c1cccc([N+](=O)[O-])c1 [6 (5)]										90 (90 and 94 = 60.1-100% disease present)	20 (20 and 24 = 10.1-20% disease present)	60 (60 = 30.1-60% disease present)	90+ (90 and 94 = 60.1-100% disease present)	90 (90 and 94 = 60.1-100% disease present)	90 (90 and 94 = 60.1-100% disease present)	90 (90 and 94 = 60.1-100% disease present)	0 (0 = 0% disease present)	
COC=C(C(=O)OC)c1ccccc1COC(=S)Nc1cccc(OC)c1 [7 (6)]										30 (30 = 20.1-30% disease present)	0 (0 = 0% disease present)	10 (10 = 5.1-10% disease present)	0+ (0 = 0% disease present)	60 (60 = 30.1-60% disease present)	90 (90 and 94 = 60.1-100% disease present)	90 (90 and 94 = 60.1-100% disease present)	60 (60 = 30.1-60% disease present)	
COC=C(C(=O)OC)c1ccccc1COC(=O)Nc1cccc(F)c1 [8 (1)]										90 (90 and 94 = 60.1-100% disease present)	60 (60 = 30.1-60% disease present)	10 (10 = 5.1-10% disease present)	0+ (0 = 0% disease present)	90 (90 and 94 = 60.1-100% disease present)	90 (90 and 94 = 60.1-100% disease present)	90 (90 and 94 = 60.1-100% disease present)	0 (0 = 0% disease present)	
COC=C(C(=O)OC)c1ccccc1COC(=O)N(C)c1cccc(F)c1 [8 (2)]	0 (0 = 0% disease present)	0 (0 = 0% disease present)	0 (0 = 0% disease present)	0+ (0 = 0% disease present)	0 (0 = 0% disease present)	0 (0 = 0% disease present)	0 (0 = 0% disease present)	0 (0 = 0% disease present)										
COC=C(C(=O)OC)c1ccccc1COC(=S)Nc1cccc(F)c1 [8 (6)]										90 (90 and 94 = 60.1-100% disease present)	90 (90 and 94 = 60.1-100% disease present)	30 (30 = 20.1-30% disease present)		60 (60 = 30.1-60% disease present)	90 (90 and 94 = 60.1-100% disease present)	90 (90 and 94 = 60.1-100% disease present)	60 (60 = 30.1-60% disease present)	90 (90 and 94 = 60.1-100% disease present)
